Reference: patent US10336721B2, “Biaryltriazole inhibitors of macrophage migration inhibitory factor” (YALE UNIVERSITY, priority 2015, dated 2019)
Values after ≈ are worked out from the molar mass of the structure shown.

Legend:
Aqueous solubility = type: physicochemical; conditions: aqueous solvent (not further specified), μg compound/mL solvent
human MIF = human MIF (Homo sapiens (Human), UniProt P14174); experiment: Inhibition of tautomerase activity of human MIF (HPP substrate); type: biochemical; conditions: for Ki: MIF tautomerase, HPP substrate, 50 nM MIF; for inhibition at 10 µM: read-out: % inhibition at 10 μM
human MIF, sequence (P14174 2-115): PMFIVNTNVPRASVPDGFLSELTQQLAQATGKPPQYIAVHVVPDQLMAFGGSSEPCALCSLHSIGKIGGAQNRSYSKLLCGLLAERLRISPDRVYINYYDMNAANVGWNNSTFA

Row | Structure (SMILES) | Ki (human MIF) [nM] | also measured
1 | Oc1ccc(-n2cc(-c3ccc4ccccc4n3)nn2)cc1 [Example 1, 4-(4-(Quinolin-2-yl)-1H-1,2,3-triazol-1-yl)phenol] | – | solubility (Aqueous solubility): 2.2 µg/mL (≈ 7.63 µM)
2 | COCCOc1ccc2nc(-c3cn(-c4ccc(O)cc4)nn3)ccc2c1 [Example 2, 4-(4-(6-(2-Methoxyethoxy)quinolin-2-yl)-1H-1,2,3-triazol-1-yl)phenol] | – | solubility (Aqueous solubility): 3.6 µg/mL (≈ 9.93 µM)
3 | COCCOc1ccc2nc(-c3cn(-c4ccc(F)cc4)nn3)ccc2c1 [Example 3, 2-(1-(4-Fluorophenyl)-1H-1,2,3-triazol-4-yl)-6-(2-methoxyethoxy)quinoline] | 8900 | –
4 | COCCOc1ccc(-c2cn(-c3ccc(Cl)cc3)nn2)nc1 [Example 4, 2-(1-(4-Chlorophenyl)-1H-1,2,3-triazol-4-yl)-5-(2-methoxyethoxy)pyridine] | – | inhibition at 10 µM (human MIF): 3%
5 | COCCOc1ccc2nc(-c3cn(-c4ccc(N)cc4)nn3)ccc2c1 [Example 5, 4-(4-(6-(2-Methoxyethoxy)quinolin-2-yl)-1H-1,2,3-triazol-1-yl)aniline] | – | inhibition at 10 µM (human MIF): 13%
6 | COCCOc1ccc2nc(-c3cn(-c4ccc(OC)cc4)nn3)ccc2c1 [Example 6, 6-(2-Methoxyethoxy)-2-(1-(4-methoxyphenyl)-1H-1,2,3-triazol-4-yl)quinoline] | – | inhibition at 10 µM (human MIF): 0%
7 | COCCOc1ccc2nc(-c3cn(-c4ccc(C#N)cc4)nn3)ccc2c1 [Example 7, 4-(4-(6-(2-Methoxyethoxy)quinolin-2-yl)-1H-1,2,3-triazol-1-yl)benzonitrile] | – | inhibition at 10 µM (human MIF): 8%
8 | COCCOc1ccc2nc(-c3cn(-c4ccc(C(N)=O)cc4)nn3)ccc2c1 [Example 8, 4-(4-(6-(2-Methoxyethoxy)quinolin-2-yl)-1H-1,2,3-triazol-1-yl)benzamide] | – | inhibition at 10 µM (human MIF): 0%
9 | COCCOc1ccc2nc(-c3cn(-c4ccc(O)c(C)c4)nn3)ccc2c1 [Example 9, 4-(4-(6-(2-Methoxyethoxy)quinolin-2-yl)-1H-1,2,3-triazol-1-yl)-2-methylphenol] | – | inhibition at 10 µM (human MIF): 15%
10 | COCCOc1ccc2nc(-c3cn(-c4ccc(O)c(OC)c4)nn3)ccc2c1 [Example 10, 2-Methoxy-4-(4-(6-(2-methoxyethoxy)quinolin-2-yl)-1H-1,2,3-triazol-1-yl)phenol] | – | inhibition at 10 µM (human MIF): 8%
11 | Cc1cc2ccccc2nc1-c1cn(-c2ccc(O)cc2)nn1 [Example 11, 4-(4-(3-Methylquinolin-2-yl)-1H-1,2,3-triazol-1-yl)phenol] | 7300 | –
12 | Cc1cc(-c2cn(-c3ccc(O)cc3)nn2)nc2ccccc12 [Example 12, 4-(4-(4-Methylquinolin-2-yl)-1H-1,2,3-triazol-1-yl)phenol] | 2300 | –
13 | Oc1ccc(-n2cc(-c3ccc4cccc(Cl)c4n3)nn2)cc1 [Example 13, 4-(4-(8-Chloroquinolin-2-yl)-1H-1,2,3-triazol-1-yl)phenol] | – | inhibition at 10 µM (human MIF): 16%
14 | COc1cccc2ccc(-c3cn(-c4ccc(F)cc4)nn3)nc12 [Example 14, 2-(1-(4-Fluorophenyl)-1H-1,2,3-triazol-4-yl)-8-methoxyquinoline] | 56000 | –
15 | COCCOc1cccc2ccc(-c3cn(-c4ccc(F)cc4)nn3)nc12 [Example 15, 2-(1-(4-Fluorophenyl)-1H-1,2,3-triazol-4-yl)-8-(3-methoxyethoxy)quinoline] | 64000 | –
16 | COc1ccc(-c2cccc3ccc(-c4cn(-c5ccc(O)cc5)nn4)nc23)cc1 [Example 16, 4-(4-(8-(4-Methoxyphenyl)quinolin-2-yl)-1H-1,2,3-triazol-1-yl)phenol] | – | inhibition at 10 µM (human MIF): 21%
17 | Oc1ccc(-n2cc(-c3ccc4cccc(Oc5ccccc5)c4n3)nn2)cc1 [Example 17, 4-(4-(8-Phenoxyquinolin-2-yl)-1H-1,2,3-triazol-1-yl)phenol] | 2950 | –
18 | Oc1ccc(-n2cc(-c3ccc4c(Oc5ccccc5)cccc4n3)nn2)cc1 [Example 18, 4-(4-(5-Phenoxyquinolin-2-yl)-1H-1,2,3-triazol-1-yl)phenol] | 370 | –
19 | Oc1ccc(-n2cc(-c3ccc4cc(OCCCN5CCOCC5)ccc4n3)nn2)cc1 [Example 19, 4-(4-(6-(3-Morpholinopropoxy)quinolin-2-yl)-1H-1,2,3-triazol-1-yl)phenol] | 1950 | –
20 | Cc1cc2cc(OCCCN3CCOCC3)ccc2nc1-c1cn(-c2ccc(O)cc2)nn1 [Example 20, 4-(4-(3-Methyl-6-(3-morpholinopropoxy)quinolin-2-yl)-1H-1,2,3-triazol-1-yl)phenol] | 3120 | –
21 | Oc1ccc(-n2cc(-c3ccc4cc(OCCOCCN5CCOCC5)ccc4n3)nn2)cc1 [Example 21, 4-(4-(6-(2-(2-Morpholinoethoxy)ethoxy)quinolin-2-yl)-1H-1,2,3-triazol-1-yl)phenol] | – | solubility (Aqueous solubility): 48.5 µg/mL (≈ 105 µM)
22 | Oc1ccc(-n2cc(-c3ccc4cc(OCCOCCN5CCOCC5)ccc4n3)nn2)cc1F [Example 22, 2-Fluoro-4-(4-(6-(2-(2-morpholinoethoxy)ethoxy)quinolin-2-yl)-1H-1,2,3-triazol-1-yl)phenol] | – | solubility (Aqueous solubility): 27.2 µg/mL (≈ 56.7 µM)

Row | Structure (SMILES) | Ki (human MIF) [nM] | also measured
23 | Fc1ccc(-n2cc(-c3ccc4cc(OCCOCCN5CCOCC5)ccc4n3)nn2)cc1 [Example 23, 4-(2-(2-((2-(1-(4-Fluorophenyl)-1H-1,2,3-triazol-4-yl)quinolin-6-yl)oxy)ethoxy)ethyl)morpholine] | 29600 | –
24 | COCCOc1ccc(Oc2cccc3nc(-c4cn(-c5ccc(O)cc5)nn4)ccc23)cc1 [Example 24, 4-(4-(5-(4-(2-Methoxyethoxy)phenoxy)quinolin-2-yl)-1H-1,2,3-triazol-1-yl)phenol] | 360 | –
25 | COCCOc1cccc(Oc2cccc3nc(-c4cn(-c5ccc(O)c(F)c5)nn4)ccc23)c1 [Example 25, 2-Fluoro-4-(4-(5-(3-(2-methoxyethoxy)phenoxy)quinolin-2-yl)-1H-1,2,3-triazol-1-yl)phenol] | 82 | –
26 | Oc1ccc(-n2cc(-c3ccc4cccnc4n3)nn2)cc1 [Example 26, 4-(4-(1,8-Naphthyridin-2-yl)-1H-1,2,3-triazol-1-yl)phenol] | 1480 | –
27 | Clc1ccc(-n2cc(-c3ccc4cccnc4n3)nn2)cc1 [Example 27, 2-(1-(4-Chlorophenyl)-1H-1,2,3-triazol-4-yl)-1,8-naphthyridine] | – | inhibition at 10 µM (human MIF): 9%
28 | NCCOCCOc1ccc2nc(-c3cn(-c4ccc(O)cc4)nn3)ccc2c1 [Example 28, 4-(4-(6-(2-(2-Aminoethoxy)ethoxy)quinolin-2-yl)-1H-1,2,3-triazol-1-yl)phenol] | – | solubility (Aqueous solubility): 13.9 µg/mL (≈ 35.5 µM)
29 | Oc1ccc(-n2cc(-c3ccc4ccc(OCCOCCN5CCOCC5)cc4n3)nn2)cc1 [Example 29, 4-(4-(7-(2-(2-Morpholinoethoxy)ethoxy)quinolin-2-yl)-1H-1,2,3-triazol-1-yl)phenol] | 850 | –
30 | Oc1ccc(-n2cc(-c3ccc4ccc(OCCOCCN5CCOCC5)cc4n3)nn2)cc1F [Example 30, 2-Fluoro-4-(4-(7-(2-(2-morpholinoethoxy)ethoxy)quinolin-2-yl)-1H-1,2,3-triazol-1-yl)phenol] | 290 | –
31 | COCCOc1ccc2nc(-c3cn(-c4ccc(O)cc4)nn3)ncc2c1 [Example 31, 4-(4-(6-(2-Methoxyethoxy)quinazolin-2-yl)-1H-1,2,3-triazol-1-yl)phenol] | 2350 | –
32 | O=C(O)c1cccc(Oc2cccc3nc(-c4cn(-c5ccc(O)c(F)c5)nn4)ccc23)c1 [Example 32, 3-((2-(1-(3-Fluoro-4-hydroxyphenyl)-1H-1,2,3-triazol-4-yl)quinolin-5-yl)oxy)benzoic acid] | – | solubility (Aqueous solubility): 47.2 µg/mL (≈ 107 µM)
33 | Oc1c(F)cc(-n2cc(-c3ccc4cc(OCCOCCN5CCOCC5)ccc4n3)nn2)cc1F [Example 33, 2,6-Difluoro-4-(4-(6-(2-(2-morpholinoethoxy)ethoxy)quinolin-2-yl)-1H-1,2,3-triazol-1-yl)phenol] | 3750 | –
34 | NCCOCCOc1ccc2nc(-c3cn(-c4ccc(O)c(F)c4)nn3)ccc2c1 [Example 34, 4-(4-(6-(2-(2-Aminoethoxy)ethoxy)quinolin-2-yl)-1H-1,2,3-triazol-1-yl)-2-fluorophenol] | – | solubility (Aqueous solubility): 9.1 µg/mL (≈ 22.2 µM)
35 | O=C(O)c1ccc(Oc2cccc3nc(-c4cn(-c5ccc(O)c(F)c5)nn4)ccc23)cc1 [Example 35, 4-((2-(1-(3-Fluoro-4-hydroxyphenyl)-1H-1,2,3-triazol-4-yl)quinolin-5-yl)oxy)benzoic acid] | 110 | –
36 | O=C(O)c1cccc(Oc2cccc3nc(-c4cn(-c5ccc(F)c(F)c5)nn4)ccc23)c1 [Example 36, 3-((2-(1-(3,4-Difluorophenyl)-1H-1,2,3-triazol-4-yl)quinolin-5-yl)oxy)benzoic acid] | 4930 | –
37 | NCc1cccc(Oc2cccc3nc(-c4cn(-c5ccc(O)c(F)c5)nn4)ccc23)c1 [Example 37, 4-(4-(5-(3-(Aminomethyl)phenoxy)quinolin-2-yl)-1H-1,2,3-triazol-1-yl)-2-fluorophenol] | 568 | –
38 | Oc1ccc(-n2cc(-c3ccc4c(Oc5cccc(OCCOCCN6CCOCC6)c5)cccc4n3)nn2)cc1F [Example 38, 2-Fluoro-4-(4-(5-(3-(2-(2-morpholinoethoxy)ethoxy)phenoxy)quinolin-2-yl)-1H-1,2,3-triazol-1-yl)phenol] | 128 | –
39 | O=C(O)c1ccc(Oc2cccc3ccc(-c4cn(-c5ccc(O)c(F)c5)nn4)nc23)cc1 [Example 39, 4-((2-(1-(3-Fluoro-4-hydroxyphenyl)-1H-1,2,3-triazol-4-yl)quinolin-8-yl)oxy)benzoic acid] | 296 | –
40 | O=C(O)c1cccc(Oc2cccc3ccc(-c4cn(-c5ccc(O)c(F)c5)nn4)nc23)c1 [Example 40, 3-((2-(1-(3-Fluoro-4-hydroxyphenyl)-1H-1,2,3-triazol-4-yl)quinolin-8-yl)oxy)benzoic acid] | 112 | –
41 | O=C(O)COc1ccc2ccc(-c3cn(-c4ccc(O)c(F)c4)nn3)nc2c1 [Example 41, 2-((2-(1-(3-Fluoro-4-hydroxyphenyl)-1H-1,2,3-triazol-4-yl)quinolin-7-yl)oxy)acetic acid] | 2240 | –
42 | O=C(O)CCCOc1ccc2ccc(-c3cn(-c4ccc(O)c(F)c4)nn3)nc2c1 [Example 42, 4-((2-(1-(3-Fluoro-4-hydroxyphenyl)-1H-1,2,3-triazol-4-yl)quinolin-7-yl)oxy)butanoic acid] | 43 | –
43 | O=C(O)CCCOc1ccc2nc(-c3cn(-c4ccc(O)c(F)c4)nn3)ccc2c1 [Example 43, 4-((2-(1-(3-Fluoro-4-hydroxyphenyl)-1H-1,2,3-triazol-4-yl)quinolin-6-yl)oxy)butanoic acid] | – | solubility (Aqueous solubility): 19.2 µg/mL (≈ 47 µM)
